# How the values were obtained:
# [1] = test system: IL-2 mRNA in alloantigen-stimulated splenic T cells; test: IL-2 mRNA expression in allogeneic mixed lymphocyte culture (PCR); assay type: cell-based, rat; conditions: 48 hours
# Procedure: The housekeeping gene HPRT was used as an internal control in order to compare levels of IL-2 mRNA levels relative to the HPRT mRNA levels, as detailed below.
# Allogeneic mixed lymphocyte culture was carried out by using nylon-nonadherent spleen cells of F344 rat (RT1^1v1) as responder cells and the spleen cells of WKAH rat (RT1^k) pretreated with 40 μg/ml of mitomycin C for 30 min as stimulator cells. […] After culturing for 48 hours, the cells were recovered by centrifugation. The expression of IL-2 mRNA in the cells was determined by a polymerase chain reaction (PCR) method.
# Total RNA was reverse transcribed in […] of buffer solution containing 10 mmol/L Tris-HCl (pH 8.3),50 mM KCl, 5 mM MgCl2, 1 mM each dNTP (dATP, dGTP, dTTP and dCTP), 60 U RNase inhibitor (Takara Ltd. Tokyo, Japan), 15 U avian myelobalastosis virus reverse transcriptase (Takara Ltd.) and 150 pmol random 9-mers at 30° C. for 10 min and 42° C. for 30 min. Primer sequences for IL-2 and hypoxanthine-guanine phosphoribosyltransferase (HPRT) were taken from the previous report (44).
# The length in base pairs of the PCR products of IL-2 and HPRT are 351 and 608 bp respectively. […] Fluorescence intensity of the specific bands was visualized by fluorescence image analyzer (FLUOR IMAGER 575®, Molecular Dynamics).
# [2] = test system: cardiac allograft, WKAH donors and ACI recipients; test: Heterotopic cardiac allograft survival, MHC-incompatible rat strains; assay type: in vivo
# [3] = test system: skin allograft, WKAH donor and F344 recipients; assay type: in vivo
# Text: Two MHC-incompatible rat strains were selected, WKAH donor (RT1^k) and F344 recipients (RT1^IV1). Full-thickness skin grafts (2.0×2.0 cm square) were transplanted to the lateral thorax of recipients and wrapped with sterile, bactericidal gauze. The chest was then wrapped with an elastic bandage. Five days after transplantation, the wraps were removed and the grafts inspected daily for rejection. Rejection was defined as more than 90% necrosis of graft epithelium.
structure (smiles),measurement,setting,value
"C=CC[C@@H]1/C=C(\C)C[C@H](C)C[C@H](OC)[C@H]2O[C@@](O)(C(=O)C(=O)N3CCCC[C@H]3C(=O)O[C@H](/C(C)=C/[C@@H]3CC[C@@H](O)[C@H](OC)C3)[C@H](C)[C@@H](O)CC1=O)[C@H](C)C[C@@H]2OC [TRL, tacrolimus, reference compound]",concentration that inhibited IL-2 mRNA expression,[1],≥ 1 nM
same,induction of long-term cardiac graft survival,[2]; even at the highest dose tested,hardly induced long-term graft survival
same,dose that significantly prolonged cardiac allograft survival,[2]; vs control,≥ 1 mg/kg
same,median survival time (MST) of skin graft,[3]; 10 mg/kg for 14 days,22.5 days
same,oral dose that significantly prolonged skin graft survival,"[3]; oral, WKAH to F344 rats",≥ 0.3 mg/kg
